# Values quoted from earlier work in patent US20030027804A1, “Therapeutic combinations for the treatment of hormone deficiencies” (priority 2001, published 2003).
# Tests used:
# [1] = in vivo
# [2] = oral, sublingual or buccal 17-alkylated androgens
# [3] = oral
# [4] = target: sex hormone binding globulin (SHBG), albumin (Homo sapiens, UniProt P02768); conditions: in men
# [5] = target: T1, sex hormone binding globulin (SHBG), albumin (Homo sapiens, UniProt P04278); conditions: in men
# T1 sequence (P04278 30-402): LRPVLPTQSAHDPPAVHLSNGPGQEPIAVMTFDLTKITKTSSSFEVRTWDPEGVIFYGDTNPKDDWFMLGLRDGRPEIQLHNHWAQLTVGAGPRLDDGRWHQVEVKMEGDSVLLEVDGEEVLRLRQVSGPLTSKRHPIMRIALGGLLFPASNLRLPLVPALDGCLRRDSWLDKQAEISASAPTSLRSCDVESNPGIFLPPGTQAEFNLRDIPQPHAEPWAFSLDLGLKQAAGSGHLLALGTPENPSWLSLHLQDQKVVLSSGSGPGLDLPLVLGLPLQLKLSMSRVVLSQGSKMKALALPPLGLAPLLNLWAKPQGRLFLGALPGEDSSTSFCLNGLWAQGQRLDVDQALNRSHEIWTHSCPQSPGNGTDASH
# [6] = tested on: sex hormone binding globulin (SHBG), albumin; conditions: circulating in the blood
# Sequence of sex hormone binding globulin (SHBG), albumin (Homo sapiens, UniProt P02768) (P02768 25-609): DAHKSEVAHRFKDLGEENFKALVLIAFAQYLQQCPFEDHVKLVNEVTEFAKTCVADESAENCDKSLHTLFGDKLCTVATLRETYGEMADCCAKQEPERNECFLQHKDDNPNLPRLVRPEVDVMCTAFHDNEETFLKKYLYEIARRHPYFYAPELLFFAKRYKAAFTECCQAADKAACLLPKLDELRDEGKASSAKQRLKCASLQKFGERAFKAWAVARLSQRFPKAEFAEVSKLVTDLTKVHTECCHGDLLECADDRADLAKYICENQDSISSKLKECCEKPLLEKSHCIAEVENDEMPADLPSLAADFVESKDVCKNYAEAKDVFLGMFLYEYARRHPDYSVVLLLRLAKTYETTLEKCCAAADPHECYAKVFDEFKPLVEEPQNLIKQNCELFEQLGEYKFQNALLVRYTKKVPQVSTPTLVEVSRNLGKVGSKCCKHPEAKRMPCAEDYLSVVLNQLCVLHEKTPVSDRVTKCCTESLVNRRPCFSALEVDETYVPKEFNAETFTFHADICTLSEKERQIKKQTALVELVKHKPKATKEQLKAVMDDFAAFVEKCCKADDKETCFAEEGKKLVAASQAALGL
structure (smiles),measurement,setting,value
"C[C@]12CC[C@@H]3c4ccc(O)cc4CC[C@H]3[C@@H]1CC[C@@H]2O [estradiol, 1,3,5(10)-Estratriene-3,17 beta-diol]",serum levels of estradiol required for clinical efficacy,[1],40 to 60 pg/mL
C[C@]1(O)CC[C@H]2[C@@H]3CCC4=CC(=O)CC[C@]4(C)[C@@]3(F)[C@@H](O)C[C@@]21C [fluoxymesterone],liver toxicity,[2],associated with liver toxicity
"C[C@]12CCC(=O)C=C1CC[C@@H]1[C@@H]2CC[C@@]2(C)[C@H]1CC[C@]2(C)O [methyl testosterone, 17 alpha-methyl-testosterone]",liver toxicity,[2],associated with liver toxicity
C[C@]12CC[C@H]3[C@@H](CCC4=CC(=O)CC[C@@]43C)[C@@H]1CC[C@@H]2O [testosterone],orally administered testosterone cleared by the liver in the first pass,[3],about 44%
same,share bound weakly to albumin,[4],60%
same,share of binding to high-affinity SHBG,[5],approximately 40%
same,testosterone in blood bound to protein,[6],98%
